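1) Cells in 96-well plates. 2) Compound, 48 h, 5 concentrations. 3) Linear interpolation between surrounding doses. 4) Unreached endpoint = highest concentration. TGI denotes the concentration required for complete inhibition of growth.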
Assays:
Experiment in all cases: NCI anticancer screen, dose series, 48 h
NCI-H226 lung = test system: NCI-H226 lung
IGROV1 ovarian = test system: IGROV1 ovarian
OVCAR-4 ovarian = test system: OVCAR-4 ovarian
MCF7 breast = test system: MCF7 breast
SW-620 colon = test system: SW-620 colon
HCT-116 colon = test system: HCT-116 colon
UACC-257 melanoma = test system: UACC-257 melanoma
SK-MEL-2 melanoma = test system: SK-MEL-2 melanoma
NCI-H23 lung = test system: NCI-H23 lung
OVCAR-8 ovarian = test system: OVCAR-8 ovarian
MDA-MB-231 breast = test system: MDA-MB-231 breast
MOLT-4 leukemia = test system: MOLT-4 leukemia
SK-MEL-5 melanoma = test system: SK-MEL-5 melanoma
BT-549 breast = test system: BT-549 breast
HCT-15 colon = test system: HCT-15 colon
RPMI-8226 leukemia = test system: RPMI-8226 leukemia
UACC-62 melanoma = test system: UACC-62 melanoma
U251 CNS = test system: U251 CNS
RXF 393 renal = test system: RXF 393 renal
K-562 leukemia = test system: K-562 leukemia

Row | Compound | TGI (NCI-H226 lung) [µM] | TGI (IGROV1 ovarian) [µM] | TGI (OVCAR-4 ovarian) [µM] | TGI (MCF7 breast) [µM] | TGI (SW-620 colon) [µM] | TGI (HCT-116 colon) [µM] | TGI (UACC-257 melanoma) [µM] | TGI (SK-MEL-2 melanoma) [µM] | TGI (NCI-H23 lung) [µM] | TGI (OVCAR-8 ovarian) [µM] | TGI (MDA-MB-231 breast) [µM] | TGI (MOLT-4 leukemia) [µM] | TGI (SK-MEL-5 melanoma) [µM] | TGI (BT-549 breast) [µM] | TGI (HCT-15 colon) [µM] | TGI (RPMI-8226 leukemia) [µM] | TGI (UACC-62 melanoma) [µM] | TGI (U251 CNS) [µM] | TGI (RXF 393 renal) [µM] | TGI (K-562 leukemia) [µM]
1 | Cc1cnc2c(c1)C(=O)N(c1ccc([N+](=O)[O-])cc1)S2(=O)=O | 78.5 | > 100 | > 100 | > 100 | > 100 | > 100 | > 100 | > 100 | > 100 | > 100 | > 100 | > 100 | > 100 | > 100 | > 100 | > 100 | > 100 | > 100 | – | –
2 | COC(=O)[C@@H](OC(C)=O)[C@@H](OC(C)=O)c1nnc2ccc(Cl)nn12 | – | > 100 | > 100 | > 100 | > 100 | > 100 | > 100 | > 100 | > 100 | > 100 | > 100 | > 100 | > 100 | > 100 | > 100 | > 100 | > 100 | > 100 | > 100 | –
3 | CCN(CC)C(=S)N/N=C/c1cc(OC)ccc1O | 25.5 | > 100 | > 100 | 9.84 | > 100 | > 100 | > 100 | > 100 | > 100 | > 100 | > 100 | 28.6 | 70.5 | > 100 | > 100 | – | 21.6 | > 100 | > 100 | > 100
4 | C=C1CC(C)(COc2cc(=O)oc3ccccc23)OC1=O (stereo not given) | 29.1 | 12.5 | 16.9 | 4.28 | 11.4 | 9.64 | 6.1 | 11.8 | 11.4 | 24.2 | 23.1 | 7.15 | 14.7 | 7.89 | 13 | 4.18 | 8.65 | 28.9 | – | 6.45
5 | COC(=O)[C@H](COC(C)(C)C)NC(=O)N[C@H](C)c1ccccc1 | > 100 | > 100 | > 100 | > 100 | > 100 | > 100 | > 100 | > 100 | > 100 | > 100 | > 100 | > 100 | > 100 | > 100 | > 100 | > 100 | > 100 | > 100 | – | > 100
6 | Cc1ccc(SCC(CF)OC(C)n2cnc3c(Cl)nc(N)nc32)cc1 (stereo not given) | > 100 | > 100 | 52.6 | > 100 | > 100 | > 100 | > 100 | > 100 | > 100 | > 100 | > 100 | > 100 | 53.7 | > 100 | > 100 | > 100 | > 100 | > 100 | – | –
7 | S=C(Nc1ccc2c(c1)oc1ccccc12)c1cccs1 | > 100 | > 100 | > 100 | > 100 | > 100 | > 100 | > 100 | > 100 | > 100 | > 100 | > 100 | > 100 | > 100 | > 100 | > 100 | – | > 100 | > 100 | > 100 | –
8 | CCc1ccc(Nc2cc(=O)n(C)c(SCc3ccccc3)n2)cc1 | > 100 | > 100 | – | > 100 | > 100 | 57.1 | > 100 | > 100 | > 100 | > 100 | > 100 | > 100 | > 100 | > 100 | > 100 | – | > 100 | – | > 100 | > 100
9 | c1ccc2nn(C3CCCO3)nc2c1 (stereo not given) | > 100 | > 100 | > 100 | > 100 | – | > 100 | > 100 | > 100 | > 100 | > 100 | > 100 | > 100 | > 100 | > 100 | > 100 | – | > 100 | > 100 | > 100 | > 100
10 | O=C(O)c1cccc(OCCOc2cccc(C(=O)O)c2[N+](=O)[O-])c1[N+](=O)[O-] | > 100 | > 100 | > 100 | > 100 | > 100 | > 100 | > 100 | > 100 | > 100 | > 100 | > 100 | > 100 | > 100 | > 100 | > 100 | > 100 | > 100 | > 100 | > 100 | –
11 | COc1cc2cc3c4cc(OC)c(OC)cc4cc[n+]3c(C)c2cc1OC | > 100 | > 100 | > 100 | > 100 | > 100 | > 100 | > 100 | > 100 | > 100 | > 100 | > 100 | > 100 | > 100 | > 100 | > 100 | > 100 | 98.6 | > 100 | – | > 100
12 | CC(=O)N=c1ccc2nc(N)nn(O)c-2c1 | > 100 | > 100 | > 100 | > 100 | > 100 | > 100 | > 100 | > 100 | > 100 | > 100 | > 100 | > 100 | > 100 | > 100 | > 100 | > 100 | > 100 | > 100 | – | > 100
13 | COc1ccc(NS(=O)c2c(C)cc(C)cc2C)cc1 (stereo not given) | > 100 | > 100 | > 100 | > 100 | > 100 | > 100 | > 100 | > 100 | > 100 | > 100 | > 100 | > 100 | 92.1 | > 100 | > 100 | > 100 | > 100 | > 100 | – | > 100
14 | CC(C)CC(NC=O)C(=O)NC(Cc1ccccc1)NC(=O)CNC(=O)C(C)NC(=O)C(N)Cc1ccc(O)cc1 (stereo not given) | > 100 | > 100 | > 100 | > 100 | > 100 | > 100 | – | – | > 100 | > 100 | > 100 | > 100 | > 100 | > 100 | > 100 | > 100 | > 100 | > 100 | > 100 | > 100
15 | COc1ccccc1NC(=O)C(=O)Cc1cnc2ccccc2n1 | > 100 | – | > 100 | > 100 | > 100 | > 100 | > 100 | > 100 | > 100 | > 100 | > 100 | > 100 | > 100 | > 100 | > 100 | > 100 | > 100 | > 100 | > 100 | > 100
16 | CCOC(=O)C1=CNC(C(=O)OCC)C1c1cccn1-c1ccccc1 (stereo not given) | 54.2 | > 100 | > 100 | > 100 | > 100 | 58.6 | > 100 | 37.2 | > 100 | > 100 | 40.1 | 47.3 | 31.5 | > 100 | > 100 | – | > 100 | > 100 | 69 | > 100
17 | O=C(Oc1c(Br)cc(Br)cc1C(=O)Oc1ccccc1)C(=O)Oc1c(Br)cc(Br)cc1C(=O)Oc1ccccc1 | 46 | > 100 | – | 60.8 | 51.1 | 31.6 | > 100 | 93.3 | 46.6 | > 100 | 30.6 | 55.1 | 31 | 52 | 75.3 | 52.9 | > 100 | 40.6 | 27.2 | 55.7
18 | COC(=O)[C@]1(C)CCC[C@]2(C)[C@@H](CCC(=O)C(C)C)[C@]3(C=O)O[C@@H]3C[C@H]21 | > 100 | – | 87.3 | > 100 | > 100 | 57.7 | > 100 | > 100 | > 100 | > 100 | > 100 | > 100 | > 100 | 77.3 | > 100 | – | > 100 | > 100 | 51.7 | > 100
19 | COc1ccc2c(c1)-c1nc(=O)n(CCCN(C)C)c3ccc([N+](=O)[O-])c(c13)N2 | 27.5 | 12.3 | 7.34 | 18.2 | > 44.3 | 12.8 | 6.85 | 27.6 | 4.5 | 19.4 | 2.09 | 0.841 | 4.4 | 16.8 | 8.55 | 0.694 | 25.2 | 9.03 | – | 0.235
20 | C(=N\NC1=NCCN1)/c1cccc2cc3ccncc3nc12 | 21.2 | 15.8 | 12.3 | 14.5 | 6.91 | 3.19 | 24.6 | – | 25.5 | 5.15 | 6.13 | 10.8 | 22.9 | 29.4 | 13.1 | 4.44 | 31.4 | 4 | 13.2 | –
21 | c1ccc2cc(CNCCCCNCCCNCc3ccc4ccccc4c3)ccc2c1 | 2.78 | 1.69 | 3.08 | 3.06 | 0.915 | 0.318 | 3.55 | 4.16 | 3.43 | 3.2 | 3.95 | – | – | 3.37 | 1.58 | 0.712 | 3.52 | 1.25 | 3.16 | –
22 | COCC12CCC(OC)C34C5CC6(O)C(OC)C=C(C5C6OC(=O)c5ccccc5)C(C(OC)C13)C4N(C)C2 (stereo not given) | – | > 100 | > 100 | > 100 | > 100 | > 100 | > 100 | > 100 | > 100 | > 100 | > 100 | – | > 100 | > 100 | > 100 | > 100 | > 100 | > 100 | > 100 | –
23 | Fc1cccc(C2SCc3nc4cc5ccccc5cc4n32)c1 (stereo not given) | > 100 | > 100 | > 100 | > 100 | > 100 | > 100 | > 100 | > 100 | > 100 | > 100 | > 100 | > 100 | – | > 100 | > 100 | > 100 | > 100 | > 100 | > 100 | > 100
24 | CC(Cc1cccc2c1Nc1ccccc1S2)N(C)CCO (stereo not given) | > 100 | > 100 | > 100 | > 100 | > 100 | > 100 | > 100 | – | > 100 | > 100 | > 100 | > 100 | > 100 | > 100 | > 100 | – | > 100 | > 100 | > 100 | > 100
25 | CC(CNC(=O)c1ccccc1)(CNC(=O)c1ccccc1)[N+](=O)[O-] | > 100 | > 100 | – | > 100 | > 100 | > 100 | > 100 | > 100 | > 100 | > 100 | > 100 | > 100 | > 100 | > 100 | > 100 | > 100 | > 100 | > 100 | > 100 | > 100

— PubChem BioAssay (NCI)
